Patent publication US7582767B2 (Biovitrum AB (publ.), priority 2005, dated 2009)
Where a name gives a salt, the structure may show the parent alone. Read-outs that look alike come from different tables or passages of the source.

Columns and labels:
human 5-HT6 receptor [1] = molecular target: T1, human 5-HT6 receptor (Homo sapiens, UniProt P50406); test: 5-HT6 binding assay ([3H]-LSD, SPA, membranes of transfected HEK293 cells)
T1 construct: expressed in transfected cells; host or cells: HEK293
T1 sequence (P50406 whole entry): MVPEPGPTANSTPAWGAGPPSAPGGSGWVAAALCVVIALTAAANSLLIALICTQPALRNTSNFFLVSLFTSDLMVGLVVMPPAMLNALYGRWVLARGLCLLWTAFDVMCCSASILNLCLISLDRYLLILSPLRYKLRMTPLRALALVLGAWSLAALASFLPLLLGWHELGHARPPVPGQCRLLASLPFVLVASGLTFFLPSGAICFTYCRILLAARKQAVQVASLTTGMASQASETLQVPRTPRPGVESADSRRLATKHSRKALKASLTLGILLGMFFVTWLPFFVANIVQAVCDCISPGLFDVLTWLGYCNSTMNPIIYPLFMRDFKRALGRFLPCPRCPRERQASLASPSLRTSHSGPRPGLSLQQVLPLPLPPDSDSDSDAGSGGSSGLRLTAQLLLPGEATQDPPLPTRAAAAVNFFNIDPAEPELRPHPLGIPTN

β2 = molecular target: T2, β2 (Homo sapiens, UniProt P07550); test: β2 binding (human recombinant, Sf9 cells)
T2 construct: expressed in transfected cells; host or cells: Sf9 cells
T2 sequence (P07550 whole entry): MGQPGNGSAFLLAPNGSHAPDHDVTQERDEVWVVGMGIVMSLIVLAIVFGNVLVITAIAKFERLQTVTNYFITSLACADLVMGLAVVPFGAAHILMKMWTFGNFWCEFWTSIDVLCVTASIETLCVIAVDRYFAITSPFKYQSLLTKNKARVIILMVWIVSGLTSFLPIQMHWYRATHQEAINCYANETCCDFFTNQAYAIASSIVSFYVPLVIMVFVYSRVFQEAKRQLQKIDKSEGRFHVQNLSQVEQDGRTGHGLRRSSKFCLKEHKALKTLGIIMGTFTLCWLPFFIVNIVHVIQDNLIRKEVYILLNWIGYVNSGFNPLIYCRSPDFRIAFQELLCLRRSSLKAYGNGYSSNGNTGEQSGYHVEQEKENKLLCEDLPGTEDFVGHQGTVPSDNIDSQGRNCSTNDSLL

5-HT3 = molecular target: T3, 5-HT3 (Homo sapiens, UniProt P46098); test: 5-HT3 binding (human recombinant, HEK-293 cells)
T3 construct: expressed in transfected cells; host or cells: HEK-293 cells
T3 sequence (P46098 24-478): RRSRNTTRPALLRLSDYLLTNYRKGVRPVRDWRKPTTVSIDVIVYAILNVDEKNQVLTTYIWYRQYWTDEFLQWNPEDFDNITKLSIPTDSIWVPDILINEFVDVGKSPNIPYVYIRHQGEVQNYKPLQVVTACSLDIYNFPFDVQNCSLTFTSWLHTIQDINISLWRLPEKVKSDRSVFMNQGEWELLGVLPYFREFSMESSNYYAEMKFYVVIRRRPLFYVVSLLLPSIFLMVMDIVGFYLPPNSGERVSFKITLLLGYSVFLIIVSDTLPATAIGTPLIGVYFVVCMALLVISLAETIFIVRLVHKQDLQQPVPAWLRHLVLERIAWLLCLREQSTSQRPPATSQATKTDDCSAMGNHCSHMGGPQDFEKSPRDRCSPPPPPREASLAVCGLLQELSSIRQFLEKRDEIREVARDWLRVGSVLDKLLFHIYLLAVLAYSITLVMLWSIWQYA

5-HT2c = molecular target: T4, 5-HT2c (Homo sapiens, UniProt P28335); test: Selectivity binding 5-HT2c
T4 sequence (P28335 33-458): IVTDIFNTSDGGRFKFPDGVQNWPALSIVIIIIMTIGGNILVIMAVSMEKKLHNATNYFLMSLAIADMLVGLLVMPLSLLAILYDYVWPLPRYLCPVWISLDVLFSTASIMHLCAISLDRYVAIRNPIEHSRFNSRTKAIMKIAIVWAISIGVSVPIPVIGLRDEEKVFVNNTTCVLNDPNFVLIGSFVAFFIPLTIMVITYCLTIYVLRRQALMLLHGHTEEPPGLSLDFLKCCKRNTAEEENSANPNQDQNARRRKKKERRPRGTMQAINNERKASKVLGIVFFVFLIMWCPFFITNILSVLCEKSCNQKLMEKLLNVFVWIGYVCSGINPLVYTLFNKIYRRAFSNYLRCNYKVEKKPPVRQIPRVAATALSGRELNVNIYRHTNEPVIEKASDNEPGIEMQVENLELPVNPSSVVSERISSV

5-HT2b = 5-HT2b (Homo sapiens, UniProt P41595); test: Selectivity binding 5-HT2b
Chain of 5-HT2b (P41595 whole entry, species assumed): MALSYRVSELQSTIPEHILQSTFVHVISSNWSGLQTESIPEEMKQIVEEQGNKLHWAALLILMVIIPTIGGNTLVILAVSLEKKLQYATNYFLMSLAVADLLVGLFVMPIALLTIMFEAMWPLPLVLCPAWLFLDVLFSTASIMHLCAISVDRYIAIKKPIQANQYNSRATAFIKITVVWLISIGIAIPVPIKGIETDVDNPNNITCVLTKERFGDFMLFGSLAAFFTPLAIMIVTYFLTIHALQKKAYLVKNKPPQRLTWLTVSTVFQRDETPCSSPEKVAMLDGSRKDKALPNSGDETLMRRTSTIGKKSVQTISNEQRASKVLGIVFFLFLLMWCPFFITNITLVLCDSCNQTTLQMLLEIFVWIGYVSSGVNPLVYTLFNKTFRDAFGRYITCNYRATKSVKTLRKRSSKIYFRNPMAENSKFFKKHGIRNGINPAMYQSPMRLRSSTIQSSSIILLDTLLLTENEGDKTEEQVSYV

5-HT2a = 5-HT2a (Homo sapiens, UniProt P28223); test: Selectivity binding 5-HT2a
Chain of 5-HT2a (P28223 whole entry, species assumed): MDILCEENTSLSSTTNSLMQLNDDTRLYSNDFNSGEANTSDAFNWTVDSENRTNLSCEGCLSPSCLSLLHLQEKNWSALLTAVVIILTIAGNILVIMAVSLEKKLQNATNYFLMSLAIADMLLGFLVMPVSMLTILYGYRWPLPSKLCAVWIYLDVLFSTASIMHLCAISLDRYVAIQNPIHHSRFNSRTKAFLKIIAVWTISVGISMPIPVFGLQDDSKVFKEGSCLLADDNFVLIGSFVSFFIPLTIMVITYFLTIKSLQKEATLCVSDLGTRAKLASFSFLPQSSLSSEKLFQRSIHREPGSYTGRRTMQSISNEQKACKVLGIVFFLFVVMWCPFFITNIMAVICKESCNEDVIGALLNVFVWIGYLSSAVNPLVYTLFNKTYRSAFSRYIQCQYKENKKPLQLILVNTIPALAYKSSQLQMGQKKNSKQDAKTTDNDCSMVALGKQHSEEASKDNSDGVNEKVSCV

β1 = molecular target: T5, β1 (Homo sapiens, UniProt P08588); test: β1 binding (human recombinant, HEK-293 cells)
T5 construct: expressed in transfected cells; host or cells: HEK-293 cells
T5 sequence (P08588 whole entry): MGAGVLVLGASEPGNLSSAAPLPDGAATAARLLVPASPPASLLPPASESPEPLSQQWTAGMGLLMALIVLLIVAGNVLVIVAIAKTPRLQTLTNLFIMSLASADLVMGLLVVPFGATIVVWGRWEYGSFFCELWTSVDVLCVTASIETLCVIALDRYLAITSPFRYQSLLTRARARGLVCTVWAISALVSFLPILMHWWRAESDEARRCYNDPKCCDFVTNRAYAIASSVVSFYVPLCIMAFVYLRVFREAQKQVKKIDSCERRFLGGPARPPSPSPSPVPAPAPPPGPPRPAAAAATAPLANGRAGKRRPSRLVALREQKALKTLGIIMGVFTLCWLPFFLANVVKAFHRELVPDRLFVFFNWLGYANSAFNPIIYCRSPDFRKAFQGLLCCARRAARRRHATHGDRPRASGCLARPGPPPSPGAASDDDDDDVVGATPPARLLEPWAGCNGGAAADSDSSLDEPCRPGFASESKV

κ (KOP) [2] = molecular target: T6, κ (KOP) (Cavia porcellus, UniProt P41144); test: κ (KOP) binding (guinea-pig cerebellum)
T6 construct: Guinea-pig cerebellum; from tissue; host or cells: guinea-pig cerebellum
T6 sequence (P41144 whole entry): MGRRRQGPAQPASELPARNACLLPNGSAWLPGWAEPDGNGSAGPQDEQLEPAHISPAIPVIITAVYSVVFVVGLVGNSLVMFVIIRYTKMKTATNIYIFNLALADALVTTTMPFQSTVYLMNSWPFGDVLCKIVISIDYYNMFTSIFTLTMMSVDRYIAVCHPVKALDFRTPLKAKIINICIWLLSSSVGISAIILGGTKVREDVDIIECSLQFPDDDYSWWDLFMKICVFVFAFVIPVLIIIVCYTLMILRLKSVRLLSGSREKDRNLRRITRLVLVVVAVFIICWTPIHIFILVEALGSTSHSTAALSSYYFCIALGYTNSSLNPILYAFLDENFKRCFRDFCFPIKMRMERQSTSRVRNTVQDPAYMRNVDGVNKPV

5-HT1a = molecular target: T7, 5-HT1a (Homo sapiens, UniProt P08908); test: Selectivity binding 5-HT1a
T7 sequence (P08908 1-422): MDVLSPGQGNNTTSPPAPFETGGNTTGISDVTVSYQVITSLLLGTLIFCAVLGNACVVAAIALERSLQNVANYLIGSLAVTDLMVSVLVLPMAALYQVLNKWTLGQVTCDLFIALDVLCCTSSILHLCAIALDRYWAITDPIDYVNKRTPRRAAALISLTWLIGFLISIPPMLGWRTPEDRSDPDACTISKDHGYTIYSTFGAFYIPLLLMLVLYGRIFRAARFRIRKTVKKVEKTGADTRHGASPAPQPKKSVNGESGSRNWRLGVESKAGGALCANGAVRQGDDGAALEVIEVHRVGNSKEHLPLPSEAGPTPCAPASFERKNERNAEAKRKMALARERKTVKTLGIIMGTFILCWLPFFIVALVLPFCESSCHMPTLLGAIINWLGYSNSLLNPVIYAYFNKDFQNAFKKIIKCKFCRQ

5-HT1b = 5-HT1b (Homo sapiens, UniProt P28222); test: Selectivity binding 5-HT1b
Chain of 5-HT1b (P28222 whole entry, species assumed): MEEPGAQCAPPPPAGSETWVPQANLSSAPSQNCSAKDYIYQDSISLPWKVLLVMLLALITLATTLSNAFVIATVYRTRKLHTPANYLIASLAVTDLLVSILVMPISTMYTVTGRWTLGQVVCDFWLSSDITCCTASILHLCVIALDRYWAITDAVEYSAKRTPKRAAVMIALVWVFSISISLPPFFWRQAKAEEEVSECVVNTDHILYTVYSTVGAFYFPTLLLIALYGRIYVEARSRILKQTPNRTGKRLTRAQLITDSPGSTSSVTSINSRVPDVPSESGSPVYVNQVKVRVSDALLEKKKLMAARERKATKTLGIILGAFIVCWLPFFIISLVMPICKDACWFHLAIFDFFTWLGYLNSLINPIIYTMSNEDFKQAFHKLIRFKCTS

human 5-HT6 receptor [3] = molecular target: T1, human 5-HT6 receptor; test: 5-HT6 intrinsic activity assay (inhibition of 5-HT induced increase in cAMP); type: cell-based
body weight of DIO rats = test: Effect on body weight, 28 days oral treatment of DIO rats; type: in vivo, male Sprague-Dawley rats; conditions: for Body weight Mean (g) Day 28: 28 days; for Basal Mean (%) Day 28: body weight % of basal; for Body weight gain Mean: day 28-initial; for Reduction % of vehicle / Reduction gram: versus vehicle at day 28
Protocol: (§1) (c) Effect on Body Weight and on Food Intake
(§2) The corresponding solution was used as vehicle. The stability of the solutions were checked upon storage for 14 days. Solutions were formulated twice a week and stored in freezer. The solutions were analysed for the actual concentrations and found similar between the two occasions.
(§3) Hundred (100) male Sprague-Dawley rats were raised on high fat diet at Scanbur BK AB (Sollentuna, Sweden) which upon their arrival to the Biovitrum animal care facility weighed approximately 700 g (17 weeks old). The rats were conditioned and weighed for approximately three weeks after their arrival. The rats were singly stored in standard cages during constant room conditions (temp 22+/−1° C., humidity 40-60%, 12 h light/dark cycle, lights off at 10 am). The rats received the same high fat diet (45 kcal % fat, 4.7 kcal/g; D12451) as they received at Scanbur. The diets were purchased from Research Diets, Inc., New Jersey, USA, consisted of pellets and were stored under dry and cold conditions.
(§4) The high fat fed animals which gained the highest weight were selected. This population weighed 799±60 g. The selected forty-eight (48) rats were randomized and divided into […] treatment groups in order to obtain as homogeneous groups according to body weight as possible. Each treatment group consisted of 12 rats: Group 1—vehicle, Group 2—Example 1-5 mg/kg (11 μmol/kg), Group 3—Example 1-15 mg/kg (33 μmol/kg), Group 4—Example 1-30 mg/kg (66 μmol/kg). Further nine (9) rats were allocated for measurement of compound exposure and pharmacokinetics at each dose group in parallel for the seventh and the twentyninth days. The study was started by baseline measurements for five days in order to accustom the rats to the procedure and to the experimentalists. Test compound was administered orally once a day at 9-10 am in a volume of 2.5 ml/kg i.e.an average of 2 ml per (800 g) rat. Pellets and body were weighed each day in connection with the injections. Water bottles were weighed once a week. The weighings were done with a computer-assisted Mettler Toledo PR 5002 balance. All data were transferred into an Excel template.
(§5) The food and water intake, and body weight data are calculated in gram and % of basal and expressed as mean +/−SD and/or +/−SEM.
(§6) The data of body weight and food intake was statistically analysed by two-way univariate ANOVA with repeated measurements (treatment x time) followed by one-way ANOVA for comparison between treatment groups at selected time points. Clinical chemistry measurements were analysed by one-way ANOVA followed by Dunnetts t-test for test of significance of treatment groups versus vehicle control. A difference between two groups was considered significant if P<0.05. Statistical evaluation was performed using SPSS for Windows.

κ (KOP) [4] = molecular target: κ (KOP) (Homo sapiens, UniProt P41145); test: κ (KOP) EC50 (method not described)
Chain of κ (KOP) (Homo sapiens, UniProt P41145) (P41145 whole entry): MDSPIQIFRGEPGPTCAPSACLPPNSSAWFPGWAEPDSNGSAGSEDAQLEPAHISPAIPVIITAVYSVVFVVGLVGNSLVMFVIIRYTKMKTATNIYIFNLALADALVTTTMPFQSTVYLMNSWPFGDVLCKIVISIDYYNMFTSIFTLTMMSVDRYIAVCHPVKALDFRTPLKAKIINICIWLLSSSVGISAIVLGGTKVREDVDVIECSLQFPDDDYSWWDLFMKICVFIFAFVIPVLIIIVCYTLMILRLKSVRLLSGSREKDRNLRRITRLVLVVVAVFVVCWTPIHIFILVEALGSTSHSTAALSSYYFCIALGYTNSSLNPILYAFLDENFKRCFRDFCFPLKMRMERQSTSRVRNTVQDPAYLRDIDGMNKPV

food intake of DIO rats = test: Effect on food intake, 28 days oral treatment of DIO rats; type: in vivo, male Sprague-Dawley rats; conditions: for food intake versus vehicle, Dunnets t-test: first seven days
Protocol: as §1, §2, §3, §4, §5, §6

[5] = competition with 3 nM [3H] LSD, HEK293 membranes, read-out: 5-HT6 Binding (Ki)
[6] = read-out: 5-HT2c Selectivity Binding (Ki)
[7] = read-out: 5-HT2a Selectivity Binding (Ki)
[8] = read-out: 5-HT1a Selectivity Binding (Ki)
[9] = read-out: 5-HT1b Selectivity Binding (Ki)

Cl.O=S(=O)(Nc1cc(OC2CCNCC2)c2occc2c1)c1ccc(Cl)s1 [Compound A, 5-chlorothiophene-2-sulphonic acid, [7-(piperidin-4-yloxy)-benzofuran-5-yl]amide, hydrochloride]
Ki (human 5-HT6 receptor [1]; [5]): 9 nM
β2 Binding % inihibition 1 μM (β2): 89%
5-HT3 Binding % inihibition 1 μM (5-HT3): 90%
Ki (5-HT2c; [6]): > 1000 nM
Ki (5-HT2b): 356 nM
Ki (5-HT2a; [7]): > 1000 nM
β1 Binding % inihibition 1 μM (β1): 80%
κ (KOP) Binding % inihibition 1 μM (κ (KOP) [2]): 71%
Ki (5-HT1a; [8]): 1520 nM
Ki (5-HT1b; [9]): 1470 nM
Ki (human 5-HT6 receptor [3]): 6 nM

CN1C[C@@H](NS(=O)(=O)N(C)C)C[C@@H]2c3cccc4c3c(cn4C)C[C@H]21 [mesulergide]
Ki (human 5-HT6 receptor [1]; [5]): 1970 nM

COc1ccc(C)cc1NS(=O)(=O)c1cc(OC2CCCNC2)c2occc2c1 (stereo not shown) [Compound D]
Ki (human 5-HT6 receptor [1]): 14 nM
Ki (5-HT2c; [6]): 1370 nM
Ki (5-HT2b): 1450 nM
Ki (5-HT2a; [7]): 917 nM
Ki (human 5-HT6 receptor [3]): 37 nM

COc1ccc(C)cc1NS(=O)(=O)c1cc(OC2CCNCC2)c2occc2c1 [Example 1]
inhibition at 0.05 µM (human 5-HT6 receptor [1]; at 50 nM, either/or statement of b82, read-out: % inhibition of [3H] LSD (general statement)): ≥ 20%
Body weight Mean (g) Day 28 (body weight of DIO rats; 5 mg/kg p.o. once a day): 845 g
Basal Mean (%) Day 28 (body weight of DIO rats; 5 mg/kg p.o.): 103.5%
Body weight gain Mean (body weight of DIO rats; 5 mg/kg p.o.): 29 g
Reduction % of vehicle (body weight of DIO rats; 5 mg/kg p.o.): 3.9%
Reduction gram (body weight of DIO rats; 5 mg/kg p.o.): −31 gram
Body weight Mean (g) Day 28 (body weight of DIO rats; 15 mg/kg p.o. once a day): 834 g
Basal Mean (%) Day 28 (body weight of DIO rats; 15 mg/kg p.o.): 103.7%
Body weight gain Mean (body weight of DIO rats; 15 mg/kg p.o.): 30 g
Reduction % of vehicle (body weight of DIO rats; 15 mg/kg p.o.): 3.7%
Reduction gram (body weight of DIO rats; 15 mg/kg p.o.): −30 gram
Body weight Mean (g) Day 28 (body weight of DIO rats; 30 mg/kg p.o. once a day): 810 g
Basal Mean (%) Day 28 (body weight of DIO rats; 30 mg/kg p.o.): 100.6%
Body weight gain Mean (body weight of DIO rats; 30 mg/kg p.o.): 4 g
Reduction % of vehicle (body weight of DIO rats; 30 mg/kg p.o.): 6.9%
Reduction gram (body weight of DIO rats; 30 mg/kg p.o.): −57 gram
body weight throughout the whole treatment period (body weight of DIO rats; 5, 15, 30 mg/kg p.o., four weeks, repeated ANOVA P<0.001): decreased significantly
reduction in body weight (body weight of DIO rats; third dose of the sentence, printed as 15 mg/kg): 6.9%
EC50 (κ (KOP) [4]): 3780 nM
Ki (5-HT3): 190 nM
Ki (5-HT2c; figure in parentheses after the bound, read-out: 5-HT2c Selectivity Binding (Ki), value in parentheses): 2300 nM
Ki (5-HT2c; [6]): > 1000 nM
Ki (5-HT2b): 440 nM
Ki (5-HT2a; figure in parentheses after the bound, read-out: 5-HT2a Selectivity Binding (Ki), value in parentheses): 5600 nM
Ki (5-HT2a; [7]): > 1000 nM
Ki (κ (KOP) [2]): 120 nM
Ki (5-HT1a; figure in parentheses after the bound, read-out: 5-HT1a Selectivity Binding (Ki), value in parentheses): 1400 nM
Ki (5-HT1a; [8]): > 1000 nM
food intake versus vehicle, Dunnets t-test (food intake of DIO rats; 15 mg/kg p.o.): significantly different from vehicle
food intake versus vehicle, Dunnets t-test (food intake of DIO rats; 30 mg/kg p.o.): significantly different from vehicle
food intake, days 8 to 14 and rest of the treatment period (food intake of DIO rats; all dose groups, P<0.076): remained decreased during the rest of the treatment period, although not statistically significant
food intake during the first seven days (food intake of DIO rats; all dose groups, repeated ANOVA P<0.001): decreased food intake significantly
minimum effective dose (food intake of DIO rats; food intake, p.o.): 15 mg/kg
Ki (5-HT1b; figure in parentheses after the bound, read-out: 5-HT1b Selectivity Binding (Ki), value in parentheses): 3600 nM
Ki (5-HT1b; [9]): > 1000 nM

O=S(=O)(Nc1cc(OC2CCNCC2)c2occc2c1)c1ccccc1C(F)(F)F [Compound B, N-[7-(4-piperidinyloxy)-1-benzofuran-5-yl]-2-trifluoromethylbenzenesulphonamide]
Ki (human 5-HT6 receptor [1]; [5]): 4 nM
β2 Binding % inihibition 1 μM (β2): 82%
5-HT3 Binding % inihibition 1 μM (5-HT3): 91%
Ki (5-HT2c; [6]): > 1000 nM
Ki (5-HT2b): 545 nM
Ki (5-HT2a; [7]): > 1000 nM
β1 Binding % inihibition 1 μM (β1): 82%
κ (KOP) Binding % inihibition 1 μM (κ (KOP) [2]): 83%
Ki (5-HT1a; [8]): > 1000 nM
Ki (5-HT1b; [9]): 1290 nM
Ki (human 5-HT6 receptor [3]): 3 nM

O=S(=O)(Nc1cc(N2CCNCC2)c2occc2c1)c1cccc2ccccc12 [Ex. 148, N-(7-piperazin-1-yl-benzofuran-5-yl)-1-naphthylsulphonamide, hydrochloride]
Ki (human 5-HT6 receptor [1]; [5]): 0.18 nM
Ki (5-HT2c; [6]): 158 nM
Ki (5-HT2b): 19.7 nM
Ki (5-HT2a; [7]): 412 nM
Ki (human 5-HT6 receptor [3]): 6 nM

COc1cccc(C)c1NS(=O)(=O)c1cc(OC2CCNCC2)c2occc2c1 [Compound C]
Ki (human 5-HT6 receptor [1]): 26 nM
Ki (5-HT2c; [6]): 1250 nM
Ki (5-HT2b): 600 nM
Ki (5-HT2a; [7]): 1000 nM
Ki (human 5-HT6 receptor [3]): 51 nM
